One data set concerns the target T1, human MET kinase L1195V (Homo sapiens, UniProt P08581, L1195V).
T1 construct: GST-tagged recombinant human MET kinase domain; purchased Signal Chem
Put plainly: c-Met Enzyme Assay, L1195V mutant. Format: binding. The settings on record: averaged IC50; L1195V 10 nM; 60-minute incubation at 22° C. The method, then: (§1) The affinity of compound binding to wild type and mutant human MET kinases was measured using Invitrogen's LanthaScreen™ Eu Kinase Binding technology. Briefly, GST-tagged recombinant human MET kinase domain from Signal Chem (see Table 8 below for concentration in assay) was incubated with 50 nM Alexa-Fluor® Tracer 236 (Invitrogen Cat No. PR9078A) and 2 nM Europium-anti-GST (Invitrogen Cat. No. A15116) along with test compound in a buffer consisting of 25 mM HEPES, pH 7.4, 10 mM MgCl2, 0.01% Triton X-100, 1mM DTT, and 2% DMSO. Compounds were typically prepared in a three-fold serial dilution in DMSO and added to the assay to give the appropriate final concentration. After a 60-minute incubation at 22° C., the reaction was measured using a PerkinElmer EnVision multimode plate reader via TR-FRET dual wavelength detection, and the percent of control (POC) calculated using a ratiometric emission factor. […] The POC values were fit to a 4 parameter logistic curve and the IC50 value is point where the curve crosses 50 POC.

Another data set addresses T2, MDR1 (P-gp) (Homo sapiens, UniProt P08183).
T2 construct: expressed in transfected cells; host or cells: LLC-PK1
Briefly: MDR1 LLC-PK1 permeability assay. The format is in vitro ADME. The settings on record: pig, MDR1 transfected LLC-PK1 cells; for Papp at 2 h, 1 μM: permeability coefficient (Papp). The protocol: MDR1 transfected LLC-PK1 cells were cultured and plated according to manufacturer's recommendations with the exception that the passage media contained only 2% fetal bovine serum to extend passage time out to seven days.
Both positive and negative controls were used to assess functionality of P-gp efflux in the assay. Stock solutions for assay controls and the test article were prepared in DMSO for final test concentrations of 10 and 1 μM, respectively. Final organic concentration in the assay was 1%. All dosing solutions contained 10 μM lucifer yellow to monitor LLC-PK1 cell monolayer integrity.
For the apical to basolateral determination (A to B), 75 μL of the test article in transport buffer were added to the apical side of the individual transwells and 250 μL of basolateral media, without compound or lucifer yellow, were added to each well. For the basolateral to apical determination (B to A), 250 μL of test article in transport buffer were added to each well and 75 μL transport buffer, without compound or lucifer yellow, were added to each transwell. All tests were performed in triplicate, and each compound was tested for both apical to basolateral and basolateral to apical transport. The plates were incubated for 2 hours on a Lab-Line Instruments Titer Orbital Shaker (VWR, West Chester, Pa.) at 50 rpm and 37° C. with 5% CO2. All culture plates were removed from the incubator and 50 μL of media were removed from the apical and basolateral portion of each well and added to 150 μL of 1 μM labetalol in 2:1 acetonitrile (acetonitrile): H2O, v/v.
The plates were read using a Molecular Devices (Sunnyvale, Calif.) Gemini Fluorometer to evaluate the lucifer yellow concentrations at excitation/emission wavelengths of 425/535 nm. These values were accepted when found to be below 2% for apical to basolateral and 5% basolateral to apical flux across the MDR1-transfected LLC-PK1-transfected cell monolayers. The plates were sealed and the contents of each well analyzed by LC-MS/MS. The compound concentrations were determined from the ratio of the peak areas of the compound to the internal standard (labetalol) in comparison to the dosing solution.
The LC-MS/MS system was comprised of an HTS-PAL autosampler (Leap Technologies, Carrboro, N.C.), an HP1200 HPLC (Agilent, Palo Alto, Calif.), and a MDS Sciex 4000 Q Trap system (Applied Biosystems, Foster City, Calif.). […] The total run time, including re-equilibration, for a single injection was 1.2 minutes. Mass spectrometric detection of the analytes was accomplished using the ion spray positive mode. Analyte responses were measured by multiple reaction monitoring (MRM) of transitions unique to each compound (the protonated precursor ion and selected product ions for each test article and m/z 329 to m/z 162 for labetalol, the internal standard).
The permeability coefficient (Papp) is calculated from the following equation: […]
where Cd, V, t and C0 are the detected concentration (μM), the volume on the dosing side (mL), the incubation time (s) and the initial dosing concentration (μM), respectively. The calculations for Papp were made for each replicate and then averaged. In this assay, a compound is defined has having high permeability if the permeability is greater than 8×10^−6 cm/sec, a compound is defined has having medium permeability if the permeability is from 2×10^−6 cm/sec to 8×10^−6 cm/sec, and a compound is defined has having low permeability if the permeability is less than 2×10^−6 cm/sec.
An efflux ratio was calculated from the mean apical to basolateral (A-B) Papp data and basolateral to apical (B-A) Papp data:
Efflux ratio=Papp(B−A)/Papp(A−B)

The next data set concerns the target T3, human MET kinase Y1230C (Homo sapiens, UniProt P08581, Y1230C).
T3 construct: GST-tagged recombinant human MET kinase domain; purchased Signal Chem
Briefly: c-Met Enzyme Assay, Y1230C mutant. The format is binding. The settings on record: averaged IC50; Y1230C 2 nM; 60-minute incubation at 22° C.; read-out: Y1230 C IC50. The protocol: as §1

Where [1] appears, read: LLC-PK1, efflux ratio = Papp(B-A)/Papp(A-B), read-out: MDR1 Pe Ratio.
[2] abbreviates: LLC-PK1, Papp(B−A)/Papp(A−B), test article 1 μM, 2 hours, 37° C., read-out: Efflux ratio.

Where two headings read alike, the source gives them in different places.

As a reminder, the IC50 is the point on the concentration scale where inhibition reaches its midpoint. Broadly, the Papp is the rate of passage across a membrane or cell layer, normalised by area and donor concentration. High values mean fast passage, low ones slow passage.

T2 sequence (P08183 whole entry): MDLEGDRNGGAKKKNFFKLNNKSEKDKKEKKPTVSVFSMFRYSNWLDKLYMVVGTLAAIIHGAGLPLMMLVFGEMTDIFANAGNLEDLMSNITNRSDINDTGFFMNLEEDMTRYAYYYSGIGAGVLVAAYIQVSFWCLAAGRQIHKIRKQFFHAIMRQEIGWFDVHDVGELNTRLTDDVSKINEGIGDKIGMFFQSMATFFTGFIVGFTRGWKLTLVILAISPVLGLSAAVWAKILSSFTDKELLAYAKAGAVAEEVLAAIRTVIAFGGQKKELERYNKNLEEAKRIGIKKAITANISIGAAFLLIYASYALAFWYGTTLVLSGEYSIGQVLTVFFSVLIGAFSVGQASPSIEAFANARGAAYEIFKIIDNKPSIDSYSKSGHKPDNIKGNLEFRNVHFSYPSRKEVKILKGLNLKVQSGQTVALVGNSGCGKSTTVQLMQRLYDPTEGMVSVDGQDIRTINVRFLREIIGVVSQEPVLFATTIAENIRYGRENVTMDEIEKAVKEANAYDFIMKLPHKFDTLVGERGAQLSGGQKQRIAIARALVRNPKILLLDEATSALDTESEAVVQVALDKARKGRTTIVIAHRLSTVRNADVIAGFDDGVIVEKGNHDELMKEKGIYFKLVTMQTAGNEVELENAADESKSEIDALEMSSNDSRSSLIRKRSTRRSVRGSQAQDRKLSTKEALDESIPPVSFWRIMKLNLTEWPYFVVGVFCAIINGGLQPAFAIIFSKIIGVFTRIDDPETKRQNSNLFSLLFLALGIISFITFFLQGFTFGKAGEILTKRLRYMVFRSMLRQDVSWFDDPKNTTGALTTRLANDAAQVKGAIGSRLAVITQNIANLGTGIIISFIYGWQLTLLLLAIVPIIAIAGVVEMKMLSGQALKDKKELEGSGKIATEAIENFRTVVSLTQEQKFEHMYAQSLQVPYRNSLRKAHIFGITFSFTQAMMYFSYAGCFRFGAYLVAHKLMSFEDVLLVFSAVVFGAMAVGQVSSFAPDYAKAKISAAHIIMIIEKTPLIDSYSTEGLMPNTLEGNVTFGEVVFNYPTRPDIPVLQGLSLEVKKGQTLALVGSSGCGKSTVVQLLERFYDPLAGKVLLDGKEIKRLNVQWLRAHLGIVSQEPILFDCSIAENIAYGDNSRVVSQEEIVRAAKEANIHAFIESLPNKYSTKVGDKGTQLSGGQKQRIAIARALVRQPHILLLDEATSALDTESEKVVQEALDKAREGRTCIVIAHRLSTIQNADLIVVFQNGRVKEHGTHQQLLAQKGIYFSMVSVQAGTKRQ
T1 sequence (P08581 1078-1345 L1195V limits assumed): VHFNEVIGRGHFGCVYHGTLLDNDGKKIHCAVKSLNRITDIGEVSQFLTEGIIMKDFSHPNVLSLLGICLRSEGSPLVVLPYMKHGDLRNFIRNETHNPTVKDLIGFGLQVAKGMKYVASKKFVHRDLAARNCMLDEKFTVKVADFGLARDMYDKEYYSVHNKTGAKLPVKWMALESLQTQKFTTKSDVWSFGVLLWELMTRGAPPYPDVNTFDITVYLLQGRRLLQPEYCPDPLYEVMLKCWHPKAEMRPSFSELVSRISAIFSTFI
T3 sequence (P08581 1078-1345 Y1230C): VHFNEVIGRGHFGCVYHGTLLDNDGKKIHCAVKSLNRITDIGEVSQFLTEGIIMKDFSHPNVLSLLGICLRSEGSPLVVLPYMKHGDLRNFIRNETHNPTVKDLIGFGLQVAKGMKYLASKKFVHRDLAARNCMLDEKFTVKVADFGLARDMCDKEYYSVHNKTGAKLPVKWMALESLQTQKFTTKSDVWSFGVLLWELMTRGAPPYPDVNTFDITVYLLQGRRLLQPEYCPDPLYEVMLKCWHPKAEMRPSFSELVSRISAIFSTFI

Consider `COc1cc2nccc(Oc3ccc(NC(=O)c4cn(C(C)C)c(C)c(-c5ccc(F)cc5)c4=O)nc3)c2cc1OC` [Example 27, N-(5-((6,7-dimethoxyquinolin-4yl)oxy)pyridin-2-yl)-5-(4-fluorophenyl)-1-isopropyl-6-methyl-4-oxo-1,4-dihydropyridine-3-carboxamide], for which the IC50 is 2.9 nM on human MET kinase L1195V and 1.5 nM on human MET kinase Y1230C. On MDR1 (P-gp) (setting [1]), the efflux ratio at 2 h, 1 μM is 5.5. This compound also registered a Papp at 2 h, 1 μM on MDR1 (P-gp) of 16 ×10⁻⁶ cm/s.

For the compound `COc1cc2nccc(Oc3ccc(NC(=O)c4cn(C(C)C)c(C)c(-c5ccc(F)c(F)c5)c4=O)nc3)c2cc1OC` [Example 28, 5-(3,4-difluorophenyl)-N-(5-((6,7-dimethoxyquinolin-4yl)oxy)pyridin-2-yl)-1-isopropyl-6-methyl-4-oxo-1,4-dihydropyridine-3-carboxamide], the results for the IC50 at human MET kinase L1195V and on human MET kinase Y1230C were 4 nM and 1.7 nM, respectively. Besides, the efflux ratio at 2 h, 1 μM is 3.5 at MDR1 (P-gp) (setting [2]) and 2.8 at MDR1 (P-gp) (setting [1]). This compound registered a Papp at 2 h, 1 μM at MDR1 (P-gp) of 15 ×10⁻⁶ cm/s.

For the compound `CCc1c(-c2ccc(F)cc2)c(=O)c(C(=O)Nc2ccc(Oc3ccnc4cc(OC)c(OC)cc34)cn2)cn1C(C)C` [Example 29, N-(5-((6,7-dimethoxyquinolin-4yl)oxy)pyridin-2-yl)-6-ethyl-5-(4-fluorophenyl)-1-isopropyl-4-oxo-1,4-dihydropyridine-3-carboxamide], the values for the IC50 at human MET kinase L1195V and at human MET kinase Y1230C were 5.1 nM and 2.6 nM, respectively. Further, the efflux ratio at 2 h, 1 μM on MDR1 (P-gp) (setting [1]) turned out to be 3.6. Besides, the Papp at 2 h, 1 μM on MDR1 (P-gp) is 10 ×10⁻⁶ cm/s.

For `COc1ccc(-c2cn(C(C)C)cc(C(=O)Nc3ccc(Oc4ccnc5cc(OC)c(OC)cc45)cn3)c2=O)cc1` [Example 30, N-(5-((6,7-dimethoxyquinolin-4yl)oxy)pyridin-2-yl)-1-isopropyl-5-(4-methoxyphenyl)-4-oxo-1,4-dihydropyridine-3-carboxamide], the results for the IC50 against human MET kinase L1195V and on human MET kinase Y1230C were 39.9 nM and 83.5 nM, respectively. For the same compound, the figures for the efflux ratio at 2 h, 1 μM on MDR1 (P-gp) (setting [2]) and on MDR1 (P-gp) (setting [1]) were 3.5 and 3.1, respectively. Moreover, the Papp at 2 h, 1 μM at MDR1 (P-gp) came to 7 ×10⁻⁶ cm/s.

`COc1ccc(-c2cn(C(C)C)cc(C(=O)Nc3ccc(Oc4ccnc5cc(OC)c(OC)cc45)cn3)c2=O)c(F)c1` [Example 31, N-(5-((6,7-dimethoxyquinolin-4yl)oxy)pyridin-2-yl)-5-(2-fluoro-4-methoxyphenyl)-1-isopropyl-4-oxo-1,4-dihydropyridine-3-carboxamide]: the IC50 on human MET kinase L1195V turned out to be 59.1 nM; at human MET kinase Y1230C, 69.3 nM. In addition, the efflux ratio at 2 h, 1 μM came out at 3.5 at MDR1 (P-gp) (setting [2]) and 2 on MDR1 (P-gp) (setting [1]). Further, the Papp at 2 h, 1 μM at MDR1 (P-gp) amounted to 11 ×10⁻⁶ cm/s.

Take `COc1cc2nccc(Oc3ccc(NC(=O)c4cn(C(C)C)cc(-c5ccc(F)cc5OC)c4=O)nc3)c2cc1OC` [Example 32, N-(5-((6,7-dimethoxyquinolin-4yl)oxy)pyridin-2-yl)-5-(4-fluoro-2-methoxyphenyl)-1-isopropyl-4-oxo-1,4-dihydropyridine-3-carboxamide]: the concentration for half-maximal inhibition (IC50) against human MET kinase L1195V was 44.8 nM; on human MET kinase Y1230C, 6.7 nM. The efflux ratio at 2 h, 1 μM at MDR1 (P-gp) (setting [1]) stood at 7.1. The same compound showed a Papp at 2 h, 1 μM on MDR1 (P-gp) of 14 ×10⁻⁶ cm/s.

For the compound `COc1ccc2nccc(Oc3ccc(NC(=O)c4cn(C(C)C)c(C)c(-c5ccc(F)cc5)c4=O)nc3)c2c1` [Example 33, 5-(4-fluorophenyl)-1-isopropyl-N-(5-((6-methoxyquinolin-4-yl)oxy)pyridin-2-yl)-6-methyl-4-oxo-1,4-dihydropyridine-3-carboxamide], the IC50 worked out at 20.2 nM against human MET kinase L1195V and 2.7 nM at human MET kinase Y1230C. Further, the efflux ratio at 2 h, 1 μM is 3.5 at MDR1 (P-gp) (setting [2]) and 2 at MDR1 (P-gp) (setting [1]). On MDR1 (P-gp), this compound returned a Papp at 2 h, 1 μM of 10 ×10⁻⁶ cm/s.

On to `COc1cc2nccc(Oc3ccc(NC(=O)c4cn(CCC(C)C)cc(-c5ccc(F)cc5)c4=O)nc3)c2cc1OC` [Example 34, N-(5-((6,7-dimethoxyquinolin-4yl)oxy)pyridin-2-yl)-5-(4-fluorophenyl)-1-isopentyl-4-oxo-1,4-dihydropyridine-3-carboxamide], for which the IC50 against human MET kinase L1195V came out at 11.2 nM; at human MET kinase Y1230C, 4.2 nM. Besides, on MDR1 (P-gp) (setting [1]), the efflux ratio at 2 h, 1 μM was 5.3. Moreover, on MDR1 (P-gp), the apparent permeability coefficient (Papp) at 2 h, 1 μM is below 1 ×10⁻⁶ cm/s.

For the compound `COc1cc2nccc(Oc3ccc(NC(=O)c4cn(CCC(C)C)cc(-c5ccc(F)c(F)c5)c4=O)nc3)c2cc1OC` [Example 35, 5-(3,4-difluorophenyl)-N-(5-((6,7-dimethoxyquinolin-4yl)oxy)pyridin-2-yl)-1-isopentyl-4-oxo-1,4-dihydropyridine-3-carboxamide], the half-inhibitory concentration (IC50) against human MET kinase L1195V came out at 34.3 nM; at human MET kinase Y1230C, 10.5 nM. Moreover, at MDR1 (P-gp) (setting [2]), the efflux ratio at 2 h, 1 μM worked out at 3.5. Further, the Papp at 2 h, 1 μM at MDR1 (P-gp) was below 1 ×10⁻⁶ cm/s.

On to `COc1cc2nccc(Oc3ccc(NC(=O)c4cn(CCC(C)C)cc(-c5ccc(F)cc5F)c4=O)nc3)c2cc1OC` [Example 36, 5-(2,4-difluorophenyl)-N-(5-((6,7-dimethoxyquinolin-4yl)oxy)pyridin-2-yl)-1-isopentyl-4-oxo-1,4-dihydropyridine-3-carboxamide], for which the results for the IC50 on human MET kinase L1195V and at human MET kinase Y1230C were 14.4 nM and 2.8 nM, respectively. Besides, the efflux ratio at 2 h, 1 μM at MDR1 (P-gp) (setting [1]) was determined as 4.3. On MDR1 (P-gp), this compound yielded a Papp at 2 h, 1 μM of 1 ×10⁻⁶ cm/s.

With `COc1cc2nccc(Oc3ccc(NC(=O)c4cn(CCC(C)C)cc(-c5ccc(Cl)cc5)c4=O)nc3)c2cc1OC` [Example 37], the half-inhibitory concentration (IC50) was determined as 23.2 nM against human MET kinase L1195V and 9.3 nM at human MET kinase Y1230C. Also, the efflux ratio at 2 h, 1 μM on MDR1 (P-gp) (setting [1]) came to 13. The compound further yielded a Papp at 2 h, 1 μM at MDR1 (P-gp) below 1 ×10⁻⁶ cm/s.

As to `CCn1cc(C(=O)Nc2ccc(Oc3ccnc4ccc(OC)cc34)cn2)c(=O)c(-c2ccc(F)cc2)c1` [Example 39, 1-ethyl-5-(4-fluorophenyl)-N-(5-((6-methoxyquinolin-4-yl)oxy)pyridin-2-yl)-4-oxo-1,4-dihydropyridine-3-carboxamide], the IC50 worked out at 508 nM on human MET kinase L1195V and 47 nM on human MET kinase Y1230C. Moreover, the efflux ratio at 2 h, 1 μM at MDR1 (P-gp) (setting [2]) was 3.5; on MDR1 (P-gp) (setting [1]), 0.9. The compound further had a Papp at 2 h, 1 μM on MDR1 (P-gp) of 7 ×10⁻⁶ cm/s.

Turning to `COc1ccc2nccc(Oc3ccc(NC(=O)c4cn(C)cc(-c5ccc(F)cc5)c4=O)nc3)c2c1` [Example 41, 5-(4-fluorophenyl)-N-(5-((6-methoxyquinolin-4yl)oxy)pyridin-2-yl)-1-methyl-4-oxo-1,4-dihydropyridine-3-carboxamide], the IC50 turned out to be 2220 nM on human MET kinase L1195V and 173 nM at human MET kinase Y1230C. Moreover, the values for the efflux ratio at 2 h, 1 μM at MDR1 (P-gp) (setting [2]) and at MDR1 (P-gp) (setting [1]) were 3.5 and 2.5, respectively. Moreover, on MDR1 (P-gp), the Papp at 2 h, 1 μM is 7 ×10⁻⁶ cm/s.

In the case of `COc1cc2nccc(Oc3ccc(NC(=O)c4cn(CCN(C)C)cc(-c5ccc(Cl)cc5)c4=O)nc3)c2cc1OC` [Example 42], the IC50 was determined as 8.2 nM on human MET kinase L1195V and 2.4 nM on human MET kinase Y1230C. The efflux ratio at 2 h, 1 μM on MDR1 (P-gp) (setting [1]) was found to be 12.
